{"source": "ChEMBL document CHEMBL2440076", "about": "“New triarylpyrazoles as broad-spectrum anticancer agents: design, synthesis, and biological evaluation” (Eur J Med Chem, 2013)", "format_in_all_cases": "functional", "key": {"COLO 205": {"system": "COLO 205", "assay": "Growth inhibition of human COLO205 cells assessed as cell growth at 5X10'-9 M after 48 hrs by sulforhodamine B assay", "settings": "COLO 205, 48 h, read-out: Activity"}, "HT-29": {"system": "HT-29", "assay": "Growth inhibition of human HT-29 cells assessed as cell growth at 5X10'-7 M after 48 hrs by sulforhodamine B assay", "settings": "HT-29, 48 h, read-out: Activity"}, "RPMI-8226": {"system": "RPMI-8226", "assay": "Growth inhibition of human RPMI8226 cells assessed as cell growth at 5X10'-8 M after 48 hrs by sulforhodamine B assay", "settings": "RPMI-8226, 48 h, read-out: Activity"}, "T47D": {"system": "T47D", "assay": "Growth inhibition of human T47D cells assessed as cell growth at 5X10'-9 M after 48 hrs by sulforhodamine B assay", "settings": "read-out: Activity"}, "K562": {"system": "K562", "assay": "Growth inhibition of human K562 cells assessed as cell growth at 5X10'-7 M after 48 hrs by sulforhodamine B assay", "settings": "K562, 48 h, read-out: Activity"}, "786-0 [1]": {"system": "786-0", "assay": "Growth inhibition of human 786-0 cells assessed as cell growth at 5X10'-7 M after 48 hrs by sulforhodamine B assay", "settings": "786-0, 48 h, read-out: Activity"}, "UACC-257 [2]": {"system": "UACC-257", "assay": "Growth inhibition of human UACC257 cells assessed as cell growth at 5X10'-7 M after 48 hrs by sulforhodamine B assay", "settings": "UACC-257, 48 h, read-out: Activity"}, "MCF7": {"system": "MCF7", "assay": "Growth inhibition of human MCF7 cells assessed as cell growth at 5X10'-5 M after 48 hrs by sulforhodamine B assay", "settings": "MCF7, 48 h, read-out: Activity"}, "HOP-62": {"system": "HOP-62", "assay": "Growth inhibition of human HOP62 cells assessed as cell growth at 5X10'-9 M after 48 hrs by sulforhodamine B assay", "settings": "HOP-62, 48 h, read-out: Activity"}, "CAKI-1": {"system": "CAKI-1", "assay": "Growth inhibition of human CAKI-1 cells assessed as cell growth at 5X10'-6 M after 48 hrs by sulforhodamine B assay", "settings": "CAKI-1, 48 h, read-out: Activity"}, "M14": {"system": "M14", "assay": "Growth inhibition of human M14 cells assessed as cell growth at 5X10'-6 M after 48 hrs by sulforhodamine B assay", "settings": "M14, 48 h, read-out: Activity"}, "DU-145 [3]": {"system": "DU-145", "assay": "Growth inhibition of human DU145 cells assessed as cell growth at 5X10'-7 M after 48 hrs by sulforhodamine B assay", "settings": "DU-145, 48 h, read-out: Activity"}, "RXF 393": {"system": "RXF 393", "assay": "Growth inhibition of human RXF393 cells assessed as cell growth at 5X10'-7 M after 48 hrs by sulforhodamine B assay", "settings": "RXF 393, 48 h, read-out: Activity"}, "SW-620 [4]": {"system": "SW-620", "assay": "Growth inhibition of human SW620 cells assessed as cell growth at 5X10'-6 M after 48 hrs by sulforhodamine B assay", "settings": "SW-620, 48 h, read-out: Activity"}, "MDA-MB-231": {"system": "MDA-MB-231", "assay": "Growth inhibition of human MDA-MB-231 cells assessed as cell growth at 5X10'-6 M after 48 hrs by sulforhodamine B assay", "settings": "MDA-MB-231, 48 h, read-out: Activity"}, "NCI-H322M": {"system": "NCI-H322M", "assay": "Growth inhibition of human NCI-H322M cells assessed as cell growth at 5X10'-9 M after 48 hrs by sulforhodamine B assay", "settings": "read-out: Activity"}, "A549": {"system": "A549", "assay": "Growth inhibition of human A549/ATCC cells assessed as cell growth at 5X10'-9 M after 48 hrs by sulforhodamine B assay", "settings": "A549, 48 h, read-out: Activity"}, "UO-31": {"system": "UO-31", "assay": "Growth inhibition of human UO31 cells assessed as cell growth at 5X10'-7 M after 48 hrs by sulforhodamine B assay", "settings": "UO-31, 48 h, read-out: Activity"}, "U-251": {"system": "U-251", "assay": "Growth inhibition of human U251 cells assessed as cell growth at 5X10'-6 M after 48 hrs by sulforhodamine B assay", "settings": "U-251, 48 h, read-out: Activity"}, "786-0 [5]": {"system": "786-0", "assay": "Growth inhibition of human 786-0 cells assessed as cell growth at 5X10'-5 M after 48 hrs by sulforhodamine B assay", "settings": "786-0, 48 h, read-out: Activity"}, "PC-3": {"system": "PC-3", "assay": "Growth inhibition of human PC3 cells assessed as cell growth at 5X10'-5 M after 48 hrs by sulforhodamine B assay", "settings": "PC-3, 48 h, read-out: Activity"}, "NCI-H522": {"system": "NCI-H522", "assay": "Growth inhibition of human NCI-H522 cells assessed as cell growth at 5X10'-6 M after 48 hrs by sulforhodamine B assay", "settings": "NCI-H522, 48 h, read-out: Activity"}, "NCI-H460 [6]": {"system": "NCI-H460", "assay": "Growth inhibition of human NCI-H460 cells assessed as cell growth at 5X10'-9 M after 48 hrs by sulforhodamine B assay", "settings": "NCI-H460, 48 h, read-out: Activity"}, "UACC-257 [7]": {"system": "UACC-257", "assay": "Growth inhibition of human UACC257 cells assessed as cell growth at 5X10'-9 M after 48 hrs by sulforhodamine B assay", "settings": "UACC-257, 48 h, read-out: Activity"}, "HCT-15": {"system": "HCT-15", "assay": "Growth inhibition of human HCT15 cells assessed as cell growth at 5X10'-9 M after 48 hrs by sulforhodamine B assay", "settings": "HCT-15, 48 h, read-out: Activity"}, "[8]": {"assay": "Growth inhibition of human NCI-ADR-RES cells assessed as cell growth at 5X10'-7 M after 48 hrs by sulforhodamine B assay", "settings": "read-out: Activity"}, "UACC-62": {"system": "UACC-62", "assay": "Growth inhibition of human UACC62 cells assessed as cell growth at 5X10'-5 M after 48 hrs by sulforhodamine B assay", "settings": "UACC-62, 48 h, read-out: Activity"}, "BT-549": {"system": "BT-549", "assay": "Growth inhibition of human BT549 cells assessed as cell growth at 5X10'-9 M after 48 hrs by sulforhodamine B assay", "settings": "BT-549, 48 h, read-out: Activity"}, "SK-OV-3": {"system": "SK-OV-3", "assay": "Growth inhibition of human SKOV3 cells assessed as cell growth at 5X10'-7 M after 48 hrs by sulforhodamine B assay", "settings": "SK-OV-3, 48 h, read-out: Activity"}, "LOX IMVI": {"system": "LOX IMVI", "assay": "Growth inhibition of human LOXIMVI cells assessed as cell growth at 5X10'-7 M after 48 hrs by sulforhodamine B assay", "settings": "read-out: Activity"}, "786-0 [9]": {"system": "786-0", "assay": "Growth inhibition of human 786-0 cells assessed as cell growth at 5X10'-6 M after 48 hrs by sulforhodamine B assay", "settings": "786-0, 48 h, read-out: Activity"}, "SW-620 [10]": {"system": "SW-620", "assay": "Growth inhibition of human SW620 cells assessed as cell growth at 5X10'-9 M after 48 hrs by sulforhodamine B assay", "settings": "SW-620, 48 h, read-out: Activity"}, "SN12C": {"system": "SN12C", "assay": "Growth inhibition of human SN12C cells assessed as cell growth at 5X10'-7 M after 48 hrs by sulforhodamine B assay", "settings": "read-out: Activity"}, "IGROV-1": {"system": "IGROV-1", "assay": "Growth inhibition of human IGROV1 cells assessed as cell growth at 5X10'-7 M after 48 hrs by sulforhodamine B assay", "settings": "IGROV-1, 48 h, read-out: Activity"}, "DU-145 [11]": {"system": "DU-145", "assay": "Growth inhibition of human DU145 cells assessed as cell growth at 5X10'-9 M after 48 hrs by sulforhodamine B assay", "settings": "DU-145, 48 h, read-out: Activity"}, "NCI-H460 [12]": {"system": "NCI-H460", "assay": "Growth inhibition of human NCI-H460 cells assessed as cell growth at 5X10'-6 M after 48 hrs by sulforhodamine B assay", "settings": "NCI-H460, 48 h, read-out: Activity"}, "[13]": {"assay": "Growth inhibition of human NCI-ADR-RES cells assessed as cell growth at 5X10'-5 M after 48 hrs by sulforhodamine B assay", "settings": "read-out: Activity"}}}
{"smiles": "COc1cc(-c2nn(-c3cccc(NC(=O)Nc4ccc(Cl)c(Cl)c4)c3)cc2-c2ccncc2)ccc1Cl", "values": [{"measurement": "growth at 0.005 µM", "setting": "COLO 205", "result": 109, "unit": "%"}, {"measurement": "growth at 0.5 µM", "setting": "HT-29", "result": 81, "unit": "%"}, {"measurement": "growth at 0.05 µM", "setting": "RPMI-8226", "result": 92, "unit": "%"}, {"measurement": "growth at 0.005 µM", "setting": "T47D", "result": 97, "unit": "%"}, {"measurement": "growth at 0.5 µM", "setting": "K562", "result": 65, "unit": "%"}, {"measurement": "growth at 0.5 µM", "setting": "786-0 [1]", "result": 89, "unit": "%"}, {"measurement": "growth at 0.5 µM", "setting": "UACC-257 [2]", "result": 83, "unit": "%"}, {"measurement": "growth at 50 µM", "setting": "MCF7", "result": 3, "unit": "%"}, {"measurement": "growth at 0.005 µM", "setting": "HOP-62", "result": 93, "unit": "%"}, {"measurement": "growth at 5 µM", "setting": "CAKI-1", "result": -13, "unit": "%"}, {"measurement": "growth at 5 µM", "setting": "M14", "result": -29, "unit": "%"}, {"measurement": "growth at 0.5 µM", "setting": "DU-145 [3]", "result": 90, "unit": "%"}, {"measurement": "growth at 0.5 µM", "setting": "RXF 393", "result": 76, "unit": "%"}, {"measurement": "growth at 5 µM", "setting": "SW-620 [4]", "result": 11, "unit": "%"}, {"measurement": "growth at 5 µM", "setting": "MDA-MB-231", "result": -47, "unit": "%"}, {"measurement": "growth at 0.005 µM", "setting": "NCI-H322M", "result": 104, "unit": "%"}, {"measurement": "growth at 0.005 µM", "setting": "A549", "result": 98, "unit": "%"}, {"measurement": "growth at 0.5 µM", "setting": "UO-31", "result": 65, "unit": "%"}, {"measurement": "growth at 5 µM", "setting": "U-251", "result": -32, "unit": "%"}, {"measurement": "growth at 50 µM", "setting": "786-0 [5]", "result": -20, "unit": "%"}, {"measurement": "growth at 50 µM", "setting": "PC-3", "result": -22, "unit": "%"}, {"measurement": "growth at 5 µM", "setting": "NCI-H522", "result": -18, "unit": "%"}, {"measurement": "growth at 0.005 µM", "setting": "NCI-H460 [6]", "result": 102, "unit": "%"}, {"measurement": "growth at 0.005 µM", "setting": "UACC-257 [7]", "result": 98, "unit": "%"}, {"measurement": "growth at 0.005 µM", "setting": "HCT-15", "result": 95, "unit": "%"}, {"measurement": "growth at 0.5 µM", "setting": "[8]", "result": 72, "unit": "%"}, {"measurement": "growth at 50 µM", "setting": "UACC-62", "result": -63, "unit": "%"}, {"measurement": "growth at 0.005 µM", "setting": "BT-549", "result": 104, "unit": "%"}, {"measurement": "growth at 0.5 µM", "setting": "SK-OV-3", "result": 105, "unit": "%"}, {"measurement": "growth at 0.5 µM", "setting": "LOX IMVI", "result": 82, "unit": "%"}, {"measurement": "growth at 5 µM", "setting": "786-0 [9]", "result": -5, "unit": "%"}, {"measurement": "growth at 0.005 µM", "setting": "SW-620 [10]", "result": 97, "unit": "%"}, {"measurement": "growth at 0.5 µM", "setting": "SN12C", "result": 82, "unit": "%"}, {"measurement": "growth at 0.5 µM", "setting": "IGROV-1", "result": 90, "unit": "%"}, {"measurement": "growth at 0.005 µM", "setting": "DU-145 [11]", "result": 103, "unit": "%"}, {"measurement": "growth at 5 µM", "setting": "NCI-H460 [12]", "result": 4, "unit": "%"}, {"measurement": "growth at 50 µM", "setting": "[13]", "result": -9, "unit": "%"}]}
